Measurements from patent publication US20140249135A1, “PIM KINASE INHIBITORS AND METHODS OF THEIR USE” (NOVARTIS AG, priority 2007, published 2014).
Like-named read-outs stand apart in the source and are kept apart here.

What was measured:
Type in all cases: biochemical
Pim1 kinase = Pim1 kinase (Homo sapiens, UniProt P11309); experiment: Pim1 ATP depletion assay; details: Pim1 ATP depletion assay;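 also: Luciferase-luciferin luminescence readout of residual ATP after PIM1 transfers phosphate to a peptide substrate, 40 µM ATP added, reaction run to roughly half ATP consumption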
Sequence of Pim1 kinase (P11309 whole entry): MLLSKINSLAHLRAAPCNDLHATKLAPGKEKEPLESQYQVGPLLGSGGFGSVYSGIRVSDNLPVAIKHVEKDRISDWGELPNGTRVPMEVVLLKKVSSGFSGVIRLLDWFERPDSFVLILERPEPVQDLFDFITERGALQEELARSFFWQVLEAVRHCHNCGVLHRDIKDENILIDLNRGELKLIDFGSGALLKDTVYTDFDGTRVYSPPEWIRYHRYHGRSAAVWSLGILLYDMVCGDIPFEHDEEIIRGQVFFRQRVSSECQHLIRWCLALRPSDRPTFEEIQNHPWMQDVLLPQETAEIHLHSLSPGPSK

Pim2 kinase = Pim2 kinase (Homo sapiens, UniProt Q9P1W9); experiment: Pim2 ATP depletion assay;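 also: Luciferase-based luminescent readout of ATP remaining after PIM2 phosphorylates a BAD peptide, final 5 nM enzyme, 4 µM ATP, 10 µM peptide, 2.5% DMSO, run to roughly half ATP consumption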
Sequence of Pim2 kinase (Q9P1W9 whole entry): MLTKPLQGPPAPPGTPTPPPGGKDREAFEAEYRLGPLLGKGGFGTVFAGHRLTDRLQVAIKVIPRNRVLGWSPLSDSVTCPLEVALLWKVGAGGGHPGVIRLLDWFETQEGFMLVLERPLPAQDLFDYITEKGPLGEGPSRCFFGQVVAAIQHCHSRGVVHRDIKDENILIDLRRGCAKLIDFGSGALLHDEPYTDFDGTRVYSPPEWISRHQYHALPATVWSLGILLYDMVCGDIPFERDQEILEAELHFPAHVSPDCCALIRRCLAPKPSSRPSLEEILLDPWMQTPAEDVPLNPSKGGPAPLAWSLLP

Pim3 kinase = Pim3 kinase (Homo sapiens, UniProt Q86V86); experiment: Pim3 ATP depletion assay

| Structure (SMILES) | IC50 (Pim1 kinase; read-out: IC50 (μM) PIM1) | IC50 (Pim2 kinase; read-out: IC50 (μM) PIM2) | IC50 (Pim3 kinase; read-out: IC50 (μM) PIM3) | IC50 (Pim1 kinase; read-out: PIM1 IC50) | IC50 (Pim2 kinase; read-out: PIM2 IC50) | IC50 (Pim3 kinase; read-out: PIM3 IC50) |
| --- | --- | --- | --- | --- | --- | --- |
| Cc1ccsc1-c1ccc(N)c(C(=O)Nc2cnccc2N2CCC[C@H](N)C2)n1 [Example 448, 3-Amino-6-(3-methyl-thiophen-2-yl)-pyridine-2-carboxylic acid (3-amino-3,4,5,6-tetrahydro-2H-[1,4′]bipyridinyl-3′-yl)-amide] | < 1 µM | < 1 µM | < 1 µM | – | – | – |
| COc1ncccc1-c1nc(C(=O)Nc2cnccc2N2CCC[C@H](N)C2)c(N)cc1F [Example 511, 5-Amino-3-fluoro-2′-methoxy-[2,3′]bipyridinyl-6-carboxylic acid (3-amino-3,4,5,6-tetrahydro-2H-[1,4′]bipyridinyl-3′-yl)-amide] | < 1 µM | < 1 µM | < 1 µM | – | – | – |
| CCCCOc1ccc(F)c(-c2nc(C(=O)Nc3cnccc3N3CCC[C@H](N)C3)c(N)cc2F)c1F [Example 506, 3-Amino-6-(3-butoxy-2,6-difluoro-phenyl)-5-fluoro-pyridine-2-carboxylic acid (3-amino-3,4,5,6-tetrahydro-2H-[1,4′]bipyridinyl-3′-yl)-amide] | < 1 µM | < 1 µM | < 1 µM | – | – | – |
| CC(C)NC(=O)c1ccc(F)c(-c2ccc(N)c(C(=O)Nc3cnccc3N3CC[C@@H](F)[C@H](N)C3)n2)c1 [Example 253, 3-Amino-6-(2-fluoro-5-isopropylcarbamoyl-phenyl)-pyridine-2-carboxylic acid (3-amino-4-fluoro-3,4,5,6-tetra-hydro-2H-[1,4′]bipyridinyl-3′-yl)-amide] | < 1 µM | < 1 µM | < 1 µM | – | – | – |
| CC(C)Oc1ccc(F)c(-c2nc(C(=O)Nc3cnccc3N3CC[C@@H](O)[C@H](N)C3)c(N)cc2F)c1F [Example 664, 3-Amino-6-(2,6-difluoro-3-isopropoxy-phenyl)-5-fluoro-pyridine-2-carboxylic acid (3-amino-4-hydroxy-3,4,5,6-tetra-hydro-2H-[1,4′]bipyridinyl-3′-yl)-amide] | – | – | – | < 1 µM | < 1 µM | < 1 µM |
| Nc1ccc(C2CCCCC2)nc1C(=O)Nc1cnccc1N1C[C@@H](N)C[C@@H](F)C1 [Example 284, 3-Amino-6-cyclohexyl-pyridine-2-carboxylic acid (3-amino-5-fluoro-3,4,5,6-tetrahydro-2H-[1,4′]bipyridinyl-3′-yl)-amide] | < 1 µM | < 1 µM | < 1 µM | – | – | – |
| Nc1ccc(-c2cccc(S(N)(=O)=O)c2)nc1C(=O)Nc1cnccc1N1CCC[C@H](N)C1 [Example 481, 3-Amino-6-(3-sulfamoyl-phenyl)-pyridine-2-carboxylic acid (3-amino-3,4,5,6-tetrahydro-2H-[1,4′]bipyridinyl-3′-yl)-amide] | < 1 µM | < 1 µM | < 1 µM | – | – | – |
| Nc1ccc(-c2ccccc2F)nc1C(=O)Nc1cnccc1N1C[C@@H](N)C[C@@H](O)C1 [Example 678, 3-Amino-6-(2-fluoro-phenyl)-pyridine-2-carboxylic acid (5-amino-3-hydroxy-3,4,5,6-tetra-hydro-2H-[1,4′]bipyridinyl-3′-yl)-amide] | – | – | – | < 1 µM | < 1 µM | < 1 µM |
| Cc1ccnc(-c2ccc(N)c(C(=O)Nc3cnccc3N3CCC[C@H](N)C3)n2)c1 [Example 724, 5-Amino-4′-methyl-[2,2′]bi-pyridinyl-6-carboxylic acid (3-amino-3,4,5,6-tetrahydro-2H-[1,4′]bipyridinyl-3′-yl)-amide] | – | – | – | < 1 µM | < 1 µM | < 1 µM |
| Cc1ccc(F)c(-c2nc(C(=O)Nc3cnccc3N3CCC[C@H](N)C3)c(N)cc2F)n1 [Example 745, 5-Amino-3,3′-difluoro-6′-methyl-[2,2′]bipyridinyl-6-carboxylic acid (3-amino-3,4,5,6-tetrahydro-2H-[1,4′]bi-pyridinyl-3′-yl)-amide] | – | – | – | < 1 µM | < 1 µM | < 1 µM |
| CCOc1ccc(F)c(-c2nc(C(=O)Nc3cnccc3N3CCC[C@H](N)C3)c(N)cc2F)c1F [Example 495, 3-Amino-6-(3-ethoxy-2,6-difluoro-phenyl)-5-fluoro-pyridine-2-carboxylic acid (3-amino-3,4,5,6-tetrahydro-2H-[1,4′]bipyridinyl-3′-yl)-amide] | < 1 µM | < 1 µM | < 1 µM | – | – | – |
| Nc1ccc(-c2nccs2)nc1C(=O)Nc1cnccc1N1CC[C@@H](F)[C@H](N)C1 [Example 257, 3-amino-N-{4-[(3R,4R)-3-amino-4-fluoropiperidin-1-yl]pyridin-3-yl}-6-(1,3-thiazol-2-yl)pyridine-2-carboxamide] | < 1 µM | < 1 µM | < 1 µM | – | – | – |
| CC1(O)CCCN(c2ccncc2NC(=O)c2nc(-c3ccccc3F)ccc2N)C1 (stereo not drawn) [Example 162, 3-Amino-6-(2-fluoro-phenyl)-pyridine-2-carboxylic acid (3-hydroxy-3-methyl-3,4,5,6-tetra-hydro-2H-[1,4′]bipyridinyl-3′-yl)-amide] | < 1 µM | < 1 µM | < 1 µM | – | – | – |
| Nc1ccc(-c2ncc(C(F)(F)F)cc2Cl)nc1C(=O)Nc1cnccc1N1CCC[C@H](N)C1 [Example 720, 5-Amino-3′-chloro-5′-trifluoro-methyl-[2,2′]bipyridinyl-6-carboxylic acid (3-amino-3,4,5,6-tetrahydro-2H-[1,4′]bi-pyridinyl-3′-yl)-amide] | – | – | – | < 1 µM | < 1 µM | < 1 µM |
| CC(=O)c1ccc(N2CCCC(N)C2)c(NC(=O)c2nccnc2N)c1 (stereo not drawn) [Example 221, N-[5-acetyl-2-(3-aminopiperidin-1-yl)phenyl]-3-aminopyrazine-2-carboxamide] | < 1 µM | 1 to 10 µM | < 1 µM | – | – | – |
| Cc1nc(N)cc(-c2ccncc2NC(=O)c2nc(-c3cc(C(=O)N(C)C)ccc3F)c(F)cc2N)n1 [Example 561, 3-Amino-6-(5-dimethylcarbamoyl-2-fluoro-phenyl)-5-fluoro-pyridine-2-carboxylic acid [4-(6-amino-2-methyl-pyrimidin-4-yl)-pyridin-3-yl]-amide] | – | – | – | < 1 µM | < 1 µM | < 1 µM |
| Nc1cc(-c2ccncc2NC(=O)c2nc(C3CCCCC3)ccc2N)nc(C(F)(F)F)n1 [Example 633, 3-Amino-6-cyclohexyl-pyridine-2-carboxylic acid [4-(6-amino-2-trifluoro-methyl-pyrimidin-4-yl)-pyridin-3-yl]-amide] | – | – | – | < 1 µM | < 1 µM | < 1 µM |
| CS(=O)(=O)c1ccc(-c2ccc(N)c(C(=O)Nc3cnccc3N3CCC[C@H](N)C3)n2)nc1 [Example 698, 5-Amino-5′-methanesulfonyl-[2,2′]bipyridinyl-6-carboxylic acid (3-amino-3,4,5,6-tetra-hydro-2H-[1,4′]bipyridinyl-3′-yl)-amide] | – | – | – | < 1 µM | < 1 µM | < 1 µM |
| CC(C)NC(=O)c1ccc(F)c(-c2ccc(N)c(C(=O)Nc3cnccc3N3CCC(F)(F)C(N)C3)n2)c1 (stereo not drawn) [Example 255, 3-Amino-6-(2-fluoro-5-isopropylcarbamoyl-phenyl)-pyridine-2-carboxylic acid (3-amino-4,4-difluoro-3,4,5,6-tetra-hydro-2H-[1,4′]bipyridinyl-3′-yl)-amide] | < 1 µM | < 1 µM | < 1 µM | – | – | – |
| Nc1ccc(-c2ccc(-c3ccccc3)cc2)nc1C(=O)Nc1cnccc1N1CCC[C@H](N)C1 [Example 473, 3-Amino-6-biphenyl-4-yl-pyridine-2-carboxylic acid (3-amino-3,4,5,6-tetrahydro-2H-[1,4′]bipyridinyl-3′-yl)-amide] | < 1 µM | < 1 µM | < 1 µM | – | – | – |
| Nc1ccc(-c2cccs2)nc1C(=O)Nc1cnccc1N1CCC[C@H](N)C1 [Example 475, 3-Amino-6-thiophen-2-yl-pyridine-2-carboxylic acid (3-amino-3,4,5,6-tetrahydro-2H-[1,4′]bipyridinyl-3′-yl)-amide] | < 1 µM | < 1 µM | < 1 µM | – | – | – |
| CC1CC(N)CN(c2ccncc2NC(=O)c2nc(C3CCCCC3)ccc2N)C1 (stereo not drawn) [Example 283, 3-Amino-6-cyclohexyl-pyridine-2-carboxylic acid (3-amino-5-methyl-3,4,5,6-tetrahydro-2H-[1,4′]bipyridinyl-3′-yl)-amide] | < 1 µM | < 1 µM | < 1 µM | – | – | – |
| N#Cc1ccc(-c2ccc(N)c(C(=O)Nc3cnccc3N3CCC[C@H](N)C3)n2)c(F)c1 [Example 686, 3-Amino-6-(4-cyano-2-fluoro-phenyl)-pyridine-2-carboxylic acid (3-amino-3,4,5,6-tetra-hydro-2H-[1,4′]bipyridinyl-3′-yl)-amide] | – | – | – | < 1 µM | < 1 µM | < 1 µM |
| Cc1ccnc(-c2ccc(N)c(C(=O)Nc3cnccc3N3CCC[C@H](N)C3)n2)c1F [Example 707, 5-Amino-3′-fluoro-4′-methyl-[2,2′]bipyridinyl-6-carboxylic acid (3-amino-3,4,5,6-tetra-hydro-2H-[1,4′]bipyridinyl-3′-yl)-amide] | – | – | – | < 1 µM | < 1 µM | < 1 µM |
| Nc1cc(-c2ccncc2NC(=O)c2nc(-c3nccs3)ccc2N)cc(C(F)(F)F)n1 [Example 640, 3-amino-N-[2′-amino-6′-(trifluoromethyl)-4,4′-bipyridin-3-yl]-6-(1,3-thiazol-2-yl)pyridine-2-carboxamide] | – | – | – | < 1 µM | < 1 µM | < 1 µM |
| CC(C)Oc1cncc(-c2nc(C(=O)Nc3cnccc3N3CCC[C@H](N)C3)c(N)cc2F)n1 [Example 739, 3-Amino-5-fluoro-6-(6-isopropoxy-pyrazin-2-yl)-pyridine-2-carboxylic acid (3-amino-3,4,5,6-tetrahydro-2H-[1,4′]bipyridinyl-3′-yl)-amide] | – | – | – | < 1 µM | < 1 µM | < 1 µM |
